Assay results from ChEMBL document CHEMBL1201862, “PubChem BioAssay data set” (2004).
Activity calls are given as the source filed them.

Columns and labels:
Protein skinhead-1 = target: T1, Protein skinhead-1 (Caenorhabditis elegans, UniProt P34707); format: functional
T1 sequence (P34707 whole entry): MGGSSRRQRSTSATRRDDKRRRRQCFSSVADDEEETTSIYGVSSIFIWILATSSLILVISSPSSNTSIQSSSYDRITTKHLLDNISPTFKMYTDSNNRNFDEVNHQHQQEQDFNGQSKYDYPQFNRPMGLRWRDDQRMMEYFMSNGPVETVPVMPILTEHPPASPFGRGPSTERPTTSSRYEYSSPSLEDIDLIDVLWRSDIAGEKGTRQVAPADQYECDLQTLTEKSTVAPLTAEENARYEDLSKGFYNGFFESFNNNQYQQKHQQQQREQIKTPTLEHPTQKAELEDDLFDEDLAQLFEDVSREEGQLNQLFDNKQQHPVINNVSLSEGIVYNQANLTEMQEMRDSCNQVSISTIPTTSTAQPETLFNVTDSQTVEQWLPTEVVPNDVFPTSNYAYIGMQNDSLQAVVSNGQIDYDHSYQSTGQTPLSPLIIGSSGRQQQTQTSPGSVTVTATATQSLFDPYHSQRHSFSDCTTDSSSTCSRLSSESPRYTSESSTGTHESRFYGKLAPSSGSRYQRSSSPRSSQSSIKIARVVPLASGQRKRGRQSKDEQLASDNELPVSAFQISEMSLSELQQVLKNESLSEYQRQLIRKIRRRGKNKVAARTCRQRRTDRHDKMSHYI

Genome polyprotein = Genome polyprotein (dengue virus type 2, UniProt P29990); assay: flavivirus cap methylation enzyme inhibition – biochemical, confirmation dose response, primary screen (AID 588689); format: functional
Genome polyprotein, sequence (P29990 2492-3391 limits assumed): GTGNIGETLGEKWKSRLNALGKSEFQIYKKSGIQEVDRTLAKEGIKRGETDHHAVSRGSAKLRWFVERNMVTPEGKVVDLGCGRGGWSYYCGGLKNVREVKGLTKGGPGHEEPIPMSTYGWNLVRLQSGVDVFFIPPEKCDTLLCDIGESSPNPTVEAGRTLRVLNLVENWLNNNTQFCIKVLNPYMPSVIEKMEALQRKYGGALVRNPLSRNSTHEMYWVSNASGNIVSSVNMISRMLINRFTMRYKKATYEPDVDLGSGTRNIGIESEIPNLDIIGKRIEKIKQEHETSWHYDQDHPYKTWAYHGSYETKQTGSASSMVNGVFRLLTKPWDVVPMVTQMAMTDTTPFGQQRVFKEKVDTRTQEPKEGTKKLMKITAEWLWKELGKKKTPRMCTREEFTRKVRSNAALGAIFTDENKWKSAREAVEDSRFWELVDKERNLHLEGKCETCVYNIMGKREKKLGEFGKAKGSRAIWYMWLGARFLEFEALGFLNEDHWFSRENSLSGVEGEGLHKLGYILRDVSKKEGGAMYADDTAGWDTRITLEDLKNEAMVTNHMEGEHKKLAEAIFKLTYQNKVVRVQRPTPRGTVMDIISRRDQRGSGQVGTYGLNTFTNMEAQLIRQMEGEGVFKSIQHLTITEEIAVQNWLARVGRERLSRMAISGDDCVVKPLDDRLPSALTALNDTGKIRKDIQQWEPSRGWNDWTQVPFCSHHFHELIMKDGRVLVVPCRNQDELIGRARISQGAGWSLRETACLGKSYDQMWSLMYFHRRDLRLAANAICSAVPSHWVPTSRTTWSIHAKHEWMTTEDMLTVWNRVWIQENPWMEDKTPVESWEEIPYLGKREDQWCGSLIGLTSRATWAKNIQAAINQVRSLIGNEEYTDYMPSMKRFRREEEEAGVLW

[1] = target: DNA dC->dU-editing enzyme APOBEC-3A (Homo sapiens, UniProt P31941); assay: Dose Response confirmation of small molecule APOBEC3A DNA Deaminase Inhibitors via a fluorescence-based single-stranded DNA deaminase assay. [Related pubchem assays (depositor defined):AID493011, AID493024]; format: functional
DNA dC->dU-editing enzyme APOBEC-3A, sequence (P31941 whole entry): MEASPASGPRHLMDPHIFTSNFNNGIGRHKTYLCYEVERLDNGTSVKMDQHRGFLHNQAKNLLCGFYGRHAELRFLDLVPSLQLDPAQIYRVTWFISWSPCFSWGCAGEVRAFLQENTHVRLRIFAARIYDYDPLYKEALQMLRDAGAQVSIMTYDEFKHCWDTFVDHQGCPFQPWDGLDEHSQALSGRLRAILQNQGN

[2] = target: DNA dC->dU-editing enzyme APOBEC-3G (Homo sapiens, UniProt Q9HC16); format: functional;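 further: Dose-response counterscreen measuring inhibition of APOBEC3G DNA deaminase activity, run while confirming APOBEC3A inhibitors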
DNA dC->dU-editing enzyme APOBEC-3G, sequence (Q9HC16 whole entry): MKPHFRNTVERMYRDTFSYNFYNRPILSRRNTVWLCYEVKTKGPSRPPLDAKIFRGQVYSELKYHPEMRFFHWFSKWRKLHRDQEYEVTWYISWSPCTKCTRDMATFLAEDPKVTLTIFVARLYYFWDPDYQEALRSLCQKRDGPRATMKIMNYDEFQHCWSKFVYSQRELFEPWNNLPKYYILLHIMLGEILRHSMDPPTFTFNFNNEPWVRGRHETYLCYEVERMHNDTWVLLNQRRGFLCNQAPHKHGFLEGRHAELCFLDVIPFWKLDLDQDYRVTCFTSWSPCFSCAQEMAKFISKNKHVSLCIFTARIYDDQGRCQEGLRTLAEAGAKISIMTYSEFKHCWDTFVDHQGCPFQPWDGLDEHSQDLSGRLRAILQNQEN

HeLa = assay: ATP-based viability loss in HeLa cells – cell-based, CellTiter-Glo luminescence, cherry-pick samples, cytotoxicity control for MITF activator project, dose response (AID 540259); format: functional; conditions: Homo sapiens
Fatty acid synthase [3] = target: T2, Fatty acid synthase (Homo sapiens, UniProt P49327); assay: inhibition of human FAS-TE enzyme activity – biochemical, kinetic fluorescence intensity, dose response (AID 624326); format: functional;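 further: rate of fluorescence rise from hydrolysis of a fluorogenic O-methyl fluorescein ester substrate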
T2 sequence (P49327 whole entry): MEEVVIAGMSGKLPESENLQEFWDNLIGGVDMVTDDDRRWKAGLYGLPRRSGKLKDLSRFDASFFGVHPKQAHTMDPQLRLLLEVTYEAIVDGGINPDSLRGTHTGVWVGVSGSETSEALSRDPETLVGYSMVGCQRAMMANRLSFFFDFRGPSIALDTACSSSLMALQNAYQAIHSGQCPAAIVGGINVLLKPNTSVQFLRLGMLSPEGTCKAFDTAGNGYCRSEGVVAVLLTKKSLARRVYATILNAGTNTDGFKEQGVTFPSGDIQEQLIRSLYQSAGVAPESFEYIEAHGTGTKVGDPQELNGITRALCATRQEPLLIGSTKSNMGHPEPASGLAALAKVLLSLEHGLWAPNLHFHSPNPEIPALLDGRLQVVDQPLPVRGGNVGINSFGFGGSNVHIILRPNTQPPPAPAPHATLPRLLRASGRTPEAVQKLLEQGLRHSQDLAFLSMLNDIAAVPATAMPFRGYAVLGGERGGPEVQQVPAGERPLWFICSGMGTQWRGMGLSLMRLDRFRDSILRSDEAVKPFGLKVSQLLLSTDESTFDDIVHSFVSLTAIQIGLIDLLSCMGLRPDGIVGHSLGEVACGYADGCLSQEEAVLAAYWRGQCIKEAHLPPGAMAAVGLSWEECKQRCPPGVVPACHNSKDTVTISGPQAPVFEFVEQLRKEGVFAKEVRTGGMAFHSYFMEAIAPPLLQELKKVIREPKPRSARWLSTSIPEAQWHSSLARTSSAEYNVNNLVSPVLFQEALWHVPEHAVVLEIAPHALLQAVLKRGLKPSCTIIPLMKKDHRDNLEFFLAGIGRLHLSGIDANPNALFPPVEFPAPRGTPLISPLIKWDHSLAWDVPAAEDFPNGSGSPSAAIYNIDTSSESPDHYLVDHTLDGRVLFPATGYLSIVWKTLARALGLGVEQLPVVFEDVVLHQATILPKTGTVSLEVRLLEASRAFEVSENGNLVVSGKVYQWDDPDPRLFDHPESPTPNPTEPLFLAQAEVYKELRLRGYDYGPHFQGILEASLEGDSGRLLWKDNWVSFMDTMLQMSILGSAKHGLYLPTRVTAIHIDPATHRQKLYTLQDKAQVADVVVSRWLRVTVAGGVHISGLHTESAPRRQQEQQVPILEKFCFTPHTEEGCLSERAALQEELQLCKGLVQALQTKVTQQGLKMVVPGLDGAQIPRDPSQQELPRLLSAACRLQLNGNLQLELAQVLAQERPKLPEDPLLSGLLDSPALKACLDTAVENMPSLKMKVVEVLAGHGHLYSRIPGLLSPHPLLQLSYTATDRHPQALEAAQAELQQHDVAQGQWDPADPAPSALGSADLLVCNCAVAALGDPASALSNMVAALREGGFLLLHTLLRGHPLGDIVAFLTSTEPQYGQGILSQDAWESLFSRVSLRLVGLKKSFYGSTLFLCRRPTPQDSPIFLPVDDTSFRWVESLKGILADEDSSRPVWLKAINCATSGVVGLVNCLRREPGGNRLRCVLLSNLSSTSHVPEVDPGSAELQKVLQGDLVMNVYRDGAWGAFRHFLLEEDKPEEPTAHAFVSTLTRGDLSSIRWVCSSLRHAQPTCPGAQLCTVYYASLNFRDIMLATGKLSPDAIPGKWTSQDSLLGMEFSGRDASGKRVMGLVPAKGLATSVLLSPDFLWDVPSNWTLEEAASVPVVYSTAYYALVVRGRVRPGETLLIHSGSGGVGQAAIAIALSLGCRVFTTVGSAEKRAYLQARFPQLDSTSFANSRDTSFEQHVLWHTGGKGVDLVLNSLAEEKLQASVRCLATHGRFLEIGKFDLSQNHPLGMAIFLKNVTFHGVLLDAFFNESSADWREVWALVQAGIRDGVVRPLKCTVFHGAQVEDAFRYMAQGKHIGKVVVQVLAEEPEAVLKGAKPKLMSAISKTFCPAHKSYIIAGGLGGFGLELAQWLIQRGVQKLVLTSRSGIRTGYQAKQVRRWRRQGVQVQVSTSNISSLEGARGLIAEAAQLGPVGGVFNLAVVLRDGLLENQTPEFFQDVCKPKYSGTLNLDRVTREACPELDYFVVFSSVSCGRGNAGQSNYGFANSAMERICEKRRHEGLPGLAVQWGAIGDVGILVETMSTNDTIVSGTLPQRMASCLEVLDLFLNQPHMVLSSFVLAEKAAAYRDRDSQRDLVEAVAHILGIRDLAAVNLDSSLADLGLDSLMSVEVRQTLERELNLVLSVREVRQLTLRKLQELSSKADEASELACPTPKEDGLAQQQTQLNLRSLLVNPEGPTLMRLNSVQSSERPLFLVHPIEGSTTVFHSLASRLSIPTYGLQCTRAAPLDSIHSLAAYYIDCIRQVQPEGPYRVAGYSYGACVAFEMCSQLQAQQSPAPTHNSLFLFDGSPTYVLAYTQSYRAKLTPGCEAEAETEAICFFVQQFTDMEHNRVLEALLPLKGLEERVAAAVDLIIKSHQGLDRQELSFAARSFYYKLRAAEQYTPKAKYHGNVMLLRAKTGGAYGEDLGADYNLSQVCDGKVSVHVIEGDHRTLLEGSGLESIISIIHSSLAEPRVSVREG

Fatty acid synthase [4] = target: T2, Fatty acid synthase; assay: inhibition of human FAS-TE enzyme activity – biochemical, endpoint fluorescence intensity, uHTS hits, dose response (AID 624327); format: functional;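 further: fluorescence from hydrolysis of an O-methyl fluorescein acyl ester substrate by the enzyme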
[5] = A cytotoxicity screen of small molecule inhibitors of the PhoP region in Salmonella typhi identified in the primary screen. [Related pubchem assays: 1850, 1864, 1985 ]; format: functional
[6] = target: Induced myeloid leukemia cell differentiation protein Mcl-1 (Homo sapiens, UniProt Q07820); format: functional
Induced myeloid leukemia cell differentiation protein Mcl-1, sequence (Q07820 whole entry): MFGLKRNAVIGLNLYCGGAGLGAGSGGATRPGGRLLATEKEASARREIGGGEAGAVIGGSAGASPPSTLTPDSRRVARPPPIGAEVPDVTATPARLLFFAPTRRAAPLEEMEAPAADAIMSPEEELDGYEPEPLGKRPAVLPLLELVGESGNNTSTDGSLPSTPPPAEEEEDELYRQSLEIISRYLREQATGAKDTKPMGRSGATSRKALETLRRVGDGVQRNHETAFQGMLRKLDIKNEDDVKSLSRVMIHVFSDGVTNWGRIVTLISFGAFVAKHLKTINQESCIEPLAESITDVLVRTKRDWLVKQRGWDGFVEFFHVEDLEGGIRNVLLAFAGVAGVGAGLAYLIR

[7] = target: T3, Zinc finger protein mex-5 (Caenorhabditis elegans, UniProt Q9XUB2); assay: potency of MEX-5 RNA-binding blockers – biochemical, C. elegans, fluorescence polarization, dose response (AID 1960)
T3 sequence (Q9XUB2 whole entry): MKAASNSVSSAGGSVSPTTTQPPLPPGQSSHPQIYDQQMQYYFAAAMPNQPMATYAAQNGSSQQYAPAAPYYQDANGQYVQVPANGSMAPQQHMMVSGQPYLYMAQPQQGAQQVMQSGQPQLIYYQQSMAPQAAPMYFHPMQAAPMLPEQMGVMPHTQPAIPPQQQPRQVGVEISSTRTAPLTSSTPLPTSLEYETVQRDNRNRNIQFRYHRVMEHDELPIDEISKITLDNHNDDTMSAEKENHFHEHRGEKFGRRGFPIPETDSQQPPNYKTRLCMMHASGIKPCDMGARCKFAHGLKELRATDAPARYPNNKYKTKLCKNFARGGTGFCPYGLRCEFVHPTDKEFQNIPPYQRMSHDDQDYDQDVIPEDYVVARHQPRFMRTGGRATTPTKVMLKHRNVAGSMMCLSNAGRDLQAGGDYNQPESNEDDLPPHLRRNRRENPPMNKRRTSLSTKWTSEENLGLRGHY

[8] = target: Heat shock protein HSP 90-alpha (Homo sapiens, UniProt P07900); format: functional, organism-based
[9] = target: T4, RNA-binding protein pos-1 (Caenorhabditis elegans, UniProt G5EF15); assay: disruptors of C. elegans POS-1 RNA interaction – biochemical, fluorescence polarization, dose response (AID 1964);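 further: purified POS-1 fused to maltose binding protein made in E. coli; potency of compounds blocking POS-1 binding to fluorescent RNA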
T4 sequence (G5EF15 whole entry): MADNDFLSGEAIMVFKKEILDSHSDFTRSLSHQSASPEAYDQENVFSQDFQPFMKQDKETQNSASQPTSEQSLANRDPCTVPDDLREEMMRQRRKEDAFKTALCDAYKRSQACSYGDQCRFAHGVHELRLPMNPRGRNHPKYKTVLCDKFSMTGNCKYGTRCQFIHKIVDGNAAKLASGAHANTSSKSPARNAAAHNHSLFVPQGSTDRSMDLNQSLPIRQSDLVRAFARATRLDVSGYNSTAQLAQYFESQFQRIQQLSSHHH

Large T antigen = Large T antigen (Simian virus 40, UniProt P03070); format: functional, Betapolyomavirus macacae;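 further: Confirmatory-stage PubChem screen for compounds that inhibit SV40 T antigen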
[10] = Luminescence Cell-Based Dose Confirmation HTS to Identify Activators of 5'UTR Stem-Loop Driven Alpha-Synuclein mRNA Translation in H4 Neuroglioblastoma Cells. [Related pubchem assays: 1829 (Project Summary), 1814 (Primary HTS)]; format: functional
[11] = Luminescence Cell-Based Dose Response HTS to Identify Activators of Luciferase Translation or Activity in H4 […] Cells. [Related pubchem assays: 1829 (Project Summary), 1814 (Primary HTS)]; format: functional
H4 = assay: Luminescence Cell-Based Dose Response HTS to Identify Activators of 5'UTR Stem-Loop Driven Prion Protein mRNA Translation in H4 Neuroglioblastoma Cells. [Related pubchem assays: 1829 (Project Summary), 1814 (Primary HTS)]; format: functional; conditions: Homo sapiens
[12] = Counterscreen for inhibitors of Trypanosoma brucei methionyl tRNA synthetase (MetRS): Luminescence-based cell-based high throughput dose response assay to identify compounds that are cytotoxic to Jurkat human T lymphocyte cells.; format: functional
[13] = viability of uninfected HEp-2 cells – cell-based, HTS, cytotoxicity control for RSV inhibitor project, dose response (AID 2410); format: functional; conditions: human respiratory syncytial virus
Nonstructural protein 1 = Nonstructural protein 1 (Influenza A virus, UniProt Q194T2); format: functional, Influenza A virus (A/California/07/2009(H1N1))
Nonstructural protein 1, sequence (Q194T2 whole entry): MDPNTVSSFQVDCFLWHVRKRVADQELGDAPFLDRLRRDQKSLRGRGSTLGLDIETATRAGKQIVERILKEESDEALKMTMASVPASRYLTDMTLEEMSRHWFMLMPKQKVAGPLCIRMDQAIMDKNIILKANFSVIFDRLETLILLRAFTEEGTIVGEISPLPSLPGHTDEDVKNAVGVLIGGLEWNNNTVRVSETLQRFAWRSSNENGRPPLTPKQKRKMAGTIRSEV

[14] = OVCAR-3 cell viability loss – plate reader, dry powder samples, PAX8 inhibitor project, dose response (AID 743044); format: functional, cell-based
[15] = blockers of HIV-1 envelope-mediated cell-cell fusion – cherry-pick, dose response (AID 652057); format: functional, cell-based
Paired box protein Pax-8 = Paired box protein Pax-8 (Homo sapiens, UniProt Q06710); assay: PAX8 transcriptional activity inhibition in RMG-I – RMG-I cells, luciferase, cherry-pick, dose response (AID 687027); format: functional, cell-based;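 further: luciferase reporter driven by Pax8 target thyroperoxidase promoter measured by SteadyGlo luminescence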
Paired box protein Pax-8, sequence (Q06710 whole entry): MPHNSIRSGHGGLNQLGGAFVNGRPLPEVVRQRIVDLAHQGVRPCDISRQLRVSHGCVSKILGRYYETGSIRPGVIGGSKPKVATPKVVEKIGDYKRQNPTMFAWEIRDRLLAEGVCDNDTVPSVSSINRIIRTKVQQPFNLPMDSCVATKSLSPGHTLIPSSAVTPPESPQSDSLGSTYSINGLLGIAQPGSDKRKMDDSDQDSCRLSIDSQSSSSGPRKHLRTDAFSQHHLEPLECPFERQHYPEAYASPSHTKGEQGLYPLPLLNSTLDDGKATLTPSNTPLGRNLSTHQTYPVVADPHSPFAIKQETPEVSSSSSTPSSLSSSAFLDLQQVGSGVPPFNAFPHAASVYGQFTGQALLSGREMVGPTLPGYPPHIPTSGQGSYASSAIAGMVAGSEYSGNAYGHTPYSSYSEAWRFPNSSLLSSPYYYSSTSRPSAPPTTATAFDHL

[16] = OVCAR8 cell viability loss – plate reader, dry powder samples, PAX8 project, dose response (AID 743197); format: functional, cell-based; conditions: OVCAR-8
[17] = HIV-1 AD8 envelope cell-cell fusion blockers – cherry-pick, dose response (AID 652062); format: functional, cell-based;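 further: luciferase signal from cell-cell fusion driven by HIV-1 clade B AD8 Env; potency is for inhibitors of fusion seen as a drop in luminescence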

SMILES: O=C(O)c1ccccc1-c1ccccc1C(=O)Nc1ccc2c(c1)oc(=O)c1ccccc12
- IC50 (Protein skinhead-1): > 100 µM (inactive)
- IC50 (Genome polyprotein): 56.3 µM (active)

SMILES: CSC1=NCCN1CCOc1ccccc1
- IC50 [1]: 6.77 µM (active)
- IC50 [2]: 8.19 µM (active)

SMILES: CCCc1cc(C(=O)Nc2cc(Cl)ccc2O)no1
- AC50 (HeLa): > 350 µM (inactive)

SMILES: CC(C)CSc1ncc(-c2cccc(C(F)(F)F)c2)cn1
- IC50 (Fatty acid synthase [3]): 14.2 µM (active)
- IC50 (Fatty acid synthase [4]): 15.5 µM (active)

SMILES: CCCCCCCCCCOC(=O)C[N+](C)(C)CC1CCCCC1O (configuration not stated)
- EC50 [5]: > 50 µM (active)

SMILES: O=C1CCCC2=C1C(c1ccc(O)c(O)c1)Nc1ccc3ncccc3c12 (configuration not stated)
- IC50 [6]: 2.67 µM (active)

SMILES: CCc1ccc(N2Cc3ccccc3C2)cc1
- AC50 (HeLa): 43.5 µM (active)

SMILES: Nc1cc(N2CCOCC2)c(Cl)cc1[N+](=O)[O-]
- EC50 [5]: > 50 µM (active)

SMILES: O=C(Nc1ccc(OC(F)F)c(Cl)c1)c1ccccn1
- IC50 (Protein skinhead-1): 51.6 µM (inactive)
- AC50 (HeLa): 99.7 µM (active)

SMILES: O=C1Oc2ccccc2C(=O)/C1=C/c1ccccc1O
- IC50 [6]: 4.18 µM (active)
- IC50 (Genome polyprotein): 25.2 µM (active)

SMILES: CCC(=O)OC1(C)C(=O)C2=COC(c3ccc(OC)cc3)=CC2=C(Br)C1=O (configuration not stated)
- EC50 [7]: 32.9 µM (active)
- AC50 [8]: 1.51 µM (active)
- IC50 (Genome polyprotein): > 100 µM (active)
- EC50 [9]: 31.5 µM (active)

SMILES: Cc1nn(CC(=O)Nc2ccc(N(C)C)cc2)c(C)c1[N+](=O)[O-]
- IC50 (Large T antigen): 12.3 µM (active)
- IC50 [6]: 7.62 µM (not active)

SMILES: Clc1ccc(OCCCN2CCCC2)cc1Cl
- EC50 [5]: > 50 µM (active)

SMILES: Cc1ccc(N(Cc2cc3cccc(C)c3nc2O)S(=O)(=O)c2ccccc2)c(C)c1
- IC50 [1]: 4.45 µM (active)
- IC50 [2]: 5.56 µM (active)

SMILES: Fc1ccccc1CSc1nc2cc(Br)c[nH]c-2n1
- EC50 [10]: 0.116 µM (active)
- EC50 [11]: 89.7 µM (active)
- EC50 (H4): 20.3 µM (active)
- IC50 [12]: 83.3 µM (inactive)

SMILES: Fc1ccc(COc2ccc(-c3nnco3)cc2)cc1
- IC50 (Protein skinhead-1): 5.67 µM (active)

SMILES: O=C1CCCCC1C(=O)c1ccccc1 (configuration not stated)
- IC50 [6]: 0.719 µM (not active)

SMILES: CCC(=O)Nc1ccc(-c2ccc(N3CCC(C)CC3)nn2)cc1
- AC50 (HeLa): 146 µM (active)

SMILES: COc1ccc2c(c1OC)C(=O)OC2Nc1nc(-c2cc3cc(Br)ccc3oc2=O)cs1 (configuration not stated)
- AC50 (HeLa): 290 µM (active)
- CC50 [13]: 30.7 µM (active)

SMILES: COc1ccccc1CNC(=O)COC(=O)c1cc([N+](=O)[O-])ccc1N1CCOCC1
- IC50 (Fatty acid synthase [3]): 1.64 µM (active)
- IC50 (Fatty acid synthase [4]): 1.31 µM (active)

SMILES: CCn1c(CNc2ccc(Cl)cc2)nnc1SCc1ccc(Cl)cc1
- AC50 [8]: 5.01 µM (active)

SMILES: COc1ccc(-n2c(C)cc(C(=O)C[N+]34CCN(CC3)CC4)c2C)cc1
- IC50 [1]: 2.64 µM (active)
- IC50 [2]: 2.73 µM (active)

SMILES: O=C(Nc1ccc(F)cc1)c1ccc2snnc2c1
- EC50 [5]: > 50 µM (active)

SMILES: Cn1c(Cc2ccccc2)nnc1SCC(=O)Nc1ccc2c(c1)OCO2
- IC50 (Protein skinhead-1): > 100 µM (inactive)

SMILES: COc1ccccc1NC(=O)CN1CCC(c2nc3cc(C)ccc3[nH]2)CC1
- EC50 [5]: > 50 µM (active)

SMILES: COc1ccc2c(c1)[C@H]1[C@H](CO2)[C@H](c2ccccc2)[C@]2(C)C(=O)Nc3ccc(Br)cc3C(=O)N12
- AC50 [8]: 1.59 µM (active)

SMILES: CCC(=O)c1ccc(OCC(=O)Nc2cc(S(=O)(=O)N3CCCCC3)ccc2N2CCN(CC)CC2)cc1
- IC50 [1]: 3.32 µM (active)
- IC50 [2]: 5.31 µM (active)

SMILES: Cc1cccc(N=C2c3cc([N+](=O)[O-])ccc3-c3c2cc([N+](=O)[O-])cc3[N+](=O)[O-])c1
- IC50 (Nonstructural protein 1): 11.7 µM (active)
- AC50 [8]: 16.6 µM (active)

SMILES: O=C1C=CC(=Nc2ccc(F)cc2)O1
- AC50 [8]: 2.25 µM (active)

SMILES: Brc1ccc2nc(-c3ccccc3)c(Cc3ccsc3)n2c1
- IC50 (Protein skinhead-1): > 100 µM (inactive)

SMILES: Cn1c2ccccc2c2cc(/C=N/NC(=O)c3cc(O)cc(O)c3)ccc21
- IC50 [1]: 16.2 µM (active)
- IC50 [2]: 41.6 µM (active)
- CC50 [13]: 12.8 µM (active)

SMILES: C[C@H](NC(=O)C[C@@H]1C[C@@H]2c3cc(NC(=O)Nc4ccc(C(F)(F)F)cc4)ccc3O[C@@H]2[C@@H](CO)O1)c1ccccc1
- AC50 [14]: 37.9 µM (active)
- AC50 [15]: 20.6 µM (active)
- AC50 (Paired box protein Pax-8): 13.2 µM (active)
- AC50 [16]: 36.8 µM (active)
- AC50 [17]: 27.7 µM (active)

SMILES: C[C@@H]1CN([C@H](C)CO)C(=O)c2cc(NC(=O)Nc3ccc(C(F)(F)F)cc3)ccc2O[C@@H](C)CCCCO[C@H]1CN(C)S(=O)(=O)c1ccc(Cl)cc1
- AC50 [14]: 26.3 µM (active)
- AC50 (Paired box protein Pax-8): 2.41 µM (active)
- AC50 [16]: > 70 µM (inactive)

SMILES: COc1ccccc1-c1ccc2c(c1)[C@@H]1[C@@H](CCN1S(=O)(=O)c1ccccc1F)[C@H](CO)N2
- AC50 [14]: 20.7 µM (active)
- AC50 (Paired box protein Pax-8): 6.87 µM (active)

SMILES: COc1ccc(C)c2s/c(=N\C(=O)c3ccc(C(C)=O)cc3)n(C)c12
- AC50 (HeLa): 40.9 µM (active)
